In US8431706B2, “1,2,3,4-tetrahydroqinoline derivative useful for the treatment of diabetes” (Eli Lilly and Company, priority 2011, dated 2013):

Molecular target: T1, PPARδ (Homo sapiens, UniProt Q03181)
T1 construct: made in house; host or cells: HEK293 (cell lysates)
T1 sequence (Q03181 1-441): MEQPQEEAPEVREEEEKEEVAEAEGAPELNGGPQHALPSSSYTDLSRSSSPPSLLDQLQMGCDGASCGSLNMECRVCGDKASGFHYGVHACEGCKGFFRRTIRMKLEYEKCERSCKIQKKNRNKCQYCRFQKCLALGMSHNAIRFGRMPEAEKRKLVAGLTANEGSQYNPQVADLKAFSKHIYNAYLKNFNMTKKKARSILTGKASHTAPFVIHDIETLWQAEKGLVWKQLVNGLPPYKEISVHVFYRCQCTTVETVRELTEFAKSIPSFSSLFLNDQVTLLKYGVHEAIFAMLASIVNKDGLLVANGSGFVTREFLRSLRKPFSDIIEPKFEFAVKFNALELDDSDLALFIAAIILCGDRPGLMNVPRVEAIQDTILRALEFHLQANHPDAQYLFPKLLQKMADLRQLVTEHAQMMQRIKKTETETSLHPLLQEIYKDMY
T1 sequence (P19793 1-462 partner): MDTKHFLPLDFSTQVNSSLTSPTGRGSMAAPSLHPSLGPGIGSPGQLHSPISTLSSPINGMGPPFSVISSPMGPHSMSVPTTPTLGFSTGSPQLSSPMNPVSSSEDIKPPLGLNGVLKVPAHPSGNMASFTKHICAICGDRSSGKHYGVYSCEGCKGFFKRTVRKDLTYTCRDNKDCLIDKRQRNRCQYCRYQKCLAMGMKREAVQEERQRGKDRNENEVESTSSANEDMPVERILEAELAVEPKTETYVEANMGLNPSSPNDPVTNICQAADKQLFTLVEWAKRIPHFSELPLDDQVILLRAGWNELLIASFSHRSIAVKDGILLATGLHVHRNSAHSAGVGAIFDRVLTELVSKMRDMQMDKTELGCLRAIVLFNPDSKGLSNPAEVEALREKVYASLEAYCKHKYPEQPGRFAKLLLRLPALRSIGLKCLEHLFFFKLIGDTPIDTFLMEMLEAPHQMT
Test: PPARδ binding assay (SPA)
Description: Because GPR40 is known to be activated by ligands to PPARγ, the exemplified compound is examined in PPARα, PPARδ, and PPARγ binding and functional assays to determine the selectivity of the compound of Example 1 for GPR40.
Binding affinities of the compound for the PPAR α, δ, and γ receptors are assessed using Scintillation Proximity Assay (SPA) technology. Biotinylated oligonucleotide Direct Repeat 2 (DR2) is used for binding the receptors to Yttrium silicate streptavidin-coated SPA beads. PPAR α, δ, γ and retinoid X receptor (RXR) α are over expressed in HEK293 cells, and cell lysates containing the specific receptors are used in the individual assays. The DR2 is attached to the SPA beads over a 30 minute period in a binding buffer containing 10 mM HEPES pH 7.8, 80 mM KCl, 0.5 mM MgCl2, 1 mM DTT, 0.5% 3[(3-cholamidopropyl)dimethylammonio]-propanesulfonic acid (CHAPS), and 4.4% bovine serum. […] Non-specific binding is determined in the presence of 10,000 nM of the unlabeled PPAR α/δ dual agonist reference compound for the alpha and delta receptor assays and the PPARγ agonist reference compound for the gamma receptor assay. The binding reaction (100 μl per well in a 96 well [Costar 3632] plate) is incubated for 10 h and counted disintegration per minutes (dpm) on a Wallac Microbeta. Receptor binding affinity (IC50) for the compound is determined by fitting an 11 point concentration-response curve with a 4-parameter logistic equation. Ki is determined from the IC50 using the Cheng-Prussoff equation and Kd determined by saturation binding. […]

CC#C[C@@H](CC(=O)O)c1ccc(OCc2ccc(CN3CCCc4cccc(OC)c43)s2)cc1 [Example 1, (3S)-3-[4-[[5-[(8-Methoxy-3,4-dihydro-2H-quinolin-1-yl)methyl]-2-thienyl]methoxy]phenyl]hex-4-ynoic acid]
binding (concentrations up to 10 μM): no binding is detected
IC50 (tested up to 30 μM, read-out: relative IC50): > 10 µM
PPAR binding values (with 10 μM concentrations of test compound): greater than 1000 nM
